Consider two compounds from ChEMBL document CHEMBL5346970, “Targeting EP2 Receptor for Drug Discovery: Strengths, Weaknesses, Opportunities, and Threats (SWOT) Analysis” (J Med Chem, 2023).

A word on the bioavailability: it is dose-corrected exposure relative to a reference, in per cent. As a reminder, the IC50 is the concentration that gives 50% inhibition.

For data set [1], the system named is SK-N-AS. Nature of the data set: Antitumor activity against human SK-N-AS cells xenografted in athymic nude mouse assessed as reduction in tumor proliferation at 20 mg/kg, ip administered once daily for 18 days by Ki-67 staining based immunohistochemistry analysis relative to control. In kind it is functional. Further details: scale not given: the % may be the effect or the level left. Particulars: time 18 day.

Data set [2] has as its system SK-N-AS. Nature of the data set: Antitumor activity against human SK-N-AS cells xenografted in athymic nude mouse assessed as reduction in tumor proliferation at 10 mg/kg, ip administered once daily for 18 days by Ki-67 staining based immunohistochemistry analysis relative to control. More on the design: scale not given: the % may be the effect or the level left. Particulars: time 18 day. The class given is functional.

Data set [3] in a line: Oral bioavailability in Sprague-Dawley rat at 0.1 ml/kg. To be noted: in vivo. In kind it is ADME, organism-based.
The nature of data set [4]: Terminal half life in Sprague-Dawley rat at 0.1 ml/kg, po. In kind it is ADME. Particulars: in vivo, read-out: beta t1/2 (converted).
The target of data set [5] is Prostaglandin E2 receptor EP2 subtype (Mus musculus, UniProt Q62053). Nature of the data set: Antagonist activity at EP2 receptor in C57BL/6 mouse trachea assessed as inhibition of PGE2-induced relaxation in rings of trachea pretreated for 30 mins in presence of carbachol followed by PGE2 relaxation. In kind it is functional, tissue-based.
Prostaglandin E2 receptor EP2 subtype, sequence (Q62053 whole entry): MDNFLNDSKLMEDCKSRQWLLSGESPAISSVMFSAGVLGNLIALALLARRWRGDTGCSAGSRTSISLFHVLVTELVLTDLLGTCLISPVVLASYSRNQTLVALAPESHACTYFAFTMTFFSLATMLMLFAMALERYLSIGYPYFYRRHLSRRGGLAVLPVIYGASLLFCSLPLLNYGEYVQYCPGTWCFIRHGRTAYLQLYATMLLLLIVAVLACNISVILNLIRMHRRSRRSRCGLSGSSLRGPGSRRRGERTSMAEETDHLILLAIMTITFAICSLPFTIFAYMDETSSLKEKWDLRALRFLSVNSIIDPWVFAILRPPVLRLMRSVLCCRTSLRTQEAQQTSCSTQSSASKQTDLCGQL

Molecules are shown by their SMILES.

Take `CCc1nnc(NS(=O)(=O)c2ccc(NC(=S)NC(=O)/C=C/c3ccc(F)cc3)cc2)s1`: the Activity with SK-N-AS [1] is 55%; in the data set on SK-N-AS [2], 25%.
For `COc1ccc2cc(OCC3(C(=O)O)CN(C(=O)c4ccc(F)cc4)C3)ccc2c1` [PF-04418948], in data set [3], the bioavailability was determined as 78%. Moreover, the half-life in data set [4] was 8.8 h. In addition, the half-inhibitory concentration (IC50) in data set [5] was 2.7 nM.
